In patent publication US11185074B2, “Microbiocidal quinoline (thio)carboxamide derivatives” (SYNGENTA PARTICIPATIONS AG, priority 2017, dated 2021):

Columns and labels:
Fusarium culmorum [1] = assay: microbe, parasite or virus in culture; format: cell-based; conditions: read-out: control of Fusarium culmorum
[2] = test system: Glomerella lagenarium (Colletotrichum lagenarium); assay: Glomerella lagenarium (Colletotrichum lagenarium) / liquid culture (anthracnose); format: cell-based; conditions: Colletotrichum orbiculare; 20 ppm; liquid culture, inhibition of growth photometrically 3-4 days after application; compared to untreated control; read-out: control of Glomerella lagenarium
[3] = test system: Monographella nivalis (Microdochium nivale); assay: Monographella nivalis (Microdochium nivale) / liquid culture (foot rot cereals); format: cell-based; conditions: 96 h, inhibition of growth photometrically 4-5 days after application, compared to untreated control
[4] = test system: Botryotinia fuckeliana (Botrytis cinerea); assay: Botryotinia fuckeliana (Botrytis cinerea) / liquid culture (gray mould); format: cell-based; conditions: 72 h, 20 ppm, liquid culture, inhibition of growth photometrically 3-4 days after application, compared to untreated control, read-out: control of Botryotinia fuckeliana
Fusarium culmorum [5] = assay: whole plant or invertebrate; format: in vivo, Fusarium culmorum on wheat spikelets cv. Monsun; conditions: in Triticum aestivum, read-out: control of Fusarium culmorum
[6] = test system: Magnaporthe grisea (Pyricularia oryzae); assay: microbe, parasite or virus in culture; format: cell-based; conditions: 72 h, read-out: control of Magnaporthe grisea
Sclerotinia sclerotiorum = Sclerotinia sclerotiorum / liquid culture (cottony rot); conditions: 72 h, read-out: control of Sclerotinia sclerotiorum
Protocol: Sclerotinia sclerotiorum/Liquid Culture (Cottony Rot)
Mycelia fragments of a newly grown liquid culture of the fungus are directly mixed into nutrient broth (Vogels broth). After placing a (DMSO) solution of test compound into a microtiter plate (96-well format) the nutrient broth containing the fungal material is added. The test plates are incubated at 24° C. and the inhibition of growth is determined photometrically 3-4 days after application.

COc1ccc(CCC(C)(C#N)NC(=O)c2cnc3c(F)cccc3c2)cc1 (centres unmarked) [E-30]
175 to 176 °C: melting point
≥ 80%: inhibition of growth at 20 ppm (Fusarium culmorum [1]) | inhibition of growth at 20 ppm [2]

C/C(=C/c1ccccc1)CC(C)(C)NC(=O)c1cnc2c(F)cccc2c1 [E-31]
≥ 80%: inhibition of growth at 20 ppm [3] | inhibition of growth at 20 ppm [4]
127 to 129 °C: melting point

CC(C)CC=CCC(C)(C)NC(=O)c1cnc2c(F)c(F)ccc2c1 [E-33]
≥ 80%: inhibition of growth at 20 ppm [3] | inhibition of growth at 20 ppm (Fusarium culmorum [1]) | inhibition of growth at 20 ppm [4] | inhibition of growth at 20 ppm [2]

CC(C)(C/C=C/c1ccccc1)NC(=O)c1cnc2c(F)c(F)ccc2c1 [E-34]
≥ 80%: inhibition of growth at 20 ppm [3] | inhibition of growth at 20 ppm (Fusarium culmorum [1]) | inhibition of growth at 20 ppm [4]

CC(C)CC(C)(C#N)NC(=O)c1cnc2c(F)cccc2c1 (centres unmarked) [E-35]
≥ 80%: inhibition of growth at 20 ppm (Fusarium culmorum [1])
167 to 171 °C: melting point

C=CCC(C)(C)NC(=O)c1cnc2c(F)c(F)ccc2c1 [E-36]
116 to 119 °C: melting point
≥ 80%: inhibition of growth at 20 ppm (Fusarium culmorum [1]) | inhibition of growth at 20 ppm [4] | inhibition of growth at 20 ppm [2]

CCC(CC)CC(C)NC(=O)c1cnc2ccccc2c1 (centres unmarked) [E-38]
≥ 80%: inhibition of growth at 20 ppm [3] | inhibition of growth at 20 ppm (Fusarium culmorum [1]) | inhibition of growth at 20 ppm [4] | inhibition of growth at 20 ppm [2]

CCC(CC)CC(C)NC(=O)c1cnc2c(C)cccc2c1 (centres unmarked) [E-39]
≥ 80%: inhibition of growth at 20 ppm (Fusarium culmorum [1]) | inhibition of growth at 20 ppm [4] | inhibition of growth at 20 ppm [2]

CCC(CC)CC(C)NC(=O)c1cnc2c(F)cccc2c1 (centres unmarked) [E-40]
≥ 80%: inhibition of growth at 20 ppm [3] | inhibition of growth at 20 ppm (Fusarium culmorum [1]) | inhibition of growth at 20 ppm [4] | inhibition of growth at 20 ppm [2]

CCCC(C)CC(C)NC(=O)c1cnc2ccccc2c1 (centres unmarked) [E-41]
≥ 80%: inhibition of growth at 20 ppm (Fusarium culmorum [1]) | inhibition of growth at 20 ppm [4] | inhibition of growth at 20 ppm [2]

CCC(CC)CC(C)(CC(F)(F)F)NC(=O)c1cnc2ccccc2c1 (centres unmarked) [E-43]
93 to 95 °C: melting point
≥ 80%: inhibition of growth at 20 ppm (Fusarium culmorum [1]) | inhibition of growth at 20 ppm [4] | pest or weed control at 200 ppm (Fusarium culmorum [5]) | inhibition of growth at 20 ppm [2] | inhibition of growth at 20 ppm [6]

CCC(CC)CC(C)(CC(F)(F)F)NC(=O)c1cnc2c(C)cccc2c1 (centres unmarked) [E-44]
≥ 80%: inhibition of growth at 20 ppm [3] | inhibition of growth at 20 ppm (Fusarium culmorum [1]) | inhibition of growth at 20 ppm [4] | inhibition of growth at 20 ppm [2] | inhibition of growth at 20 ppm [6]

CC(CC1CC=CCC1)NC(=O)c1cnc2ccccc2c1 (centres unmarked) [E-49]
≥ 80%: inhibition of growth at 20 ppm (Fusarium culmorum [1]) | inhibition of growth at 20 ppm [4] | inhibition of growth at 20 ppm [2]

Cc1cccc2cc(C(=O)NC(C)CC3CC=CCC3)cnc12 (centres unmarked) [E-50]
≥ 80%: inhibition of growth at 20 ppm [3] | inhibition of growth at 20 ppm (Fusarium culmorum [1]) | inhibition of growth at 20 ppm [4] | pest or weed control at 200 ppm (Fusarium culmorum [5]) | inhibition of growth at 20 ppm [2]

CCCC(C)CC(C)NC(=O)c1cnc2c(F)cccc2c1 (centres unmarked) [E-51]
≥ 80%: inhibition of growth at 20 ppm [3] | inhibition of growth at 20 ppm (Fusarium culmorum [1]) | inhibition of growth at 20 ppm [4] | inhibition of growth at 20 ppm [2]

CCCC(C)CC(C)(CC(F)(F)F)NC(=O)c1cnc2c(F)cccc2c1 (centres unmarked) [E-52]
≥ 80%: inhibition of growth at 20 ppm [3] | inhibition of growth at 20 ppm (Fusarium culmorum [1]) | inhibition of growth at 20 ppm [4] | pest or weed control at 200 ppm (Fusarium culmorum [5]) | inhibition of growth at 20 ppm [2] | inhibition of growth at 20 ppm [6]

Cc1cccc2cc(C(=O)NC(C)(CC3CC=CCC3)CC(F)(F)F)cnc12 (centres unmarked) [E-53]
112 to 114 °C: melting point
≥ 80%: inhibition of growth at 20 ppm [3] | inhibition of growth at 20 ppm (Fusarium culmorum [1]) | inhibition of growth at 20 ppm [4] | inhibition of growth at 20 ppm (Sclerotinia sclerotiorum) | inhibition of growth at 20 ppm [2] | inhibition of growth at 20 ppm [6]

CC(CC1CC=CCC1)(CC(F)(F)F)NC(=O)c1cnc2ccccc2c1 (centres unmarked) [E-55]
≥ 80%: inhibition of growth at 20 ppm [3] | inhibition of growth at 20 ppm (Fusarium culmorum [1]) | inhibition of growth at 20 ppm [4] | pest or weed control at 200 ppm (Fusarium culmorum [5]) | inhibition of growth at 20 ppm [2] | inhibition of growth at 20 ppm [6]
90 to 95 °C: melting point

CC(CC1CCCCC1)(CC(F)(F)F)NC(=O)c1cnc2ccccc2c1 (centres unmarked) [E-60]
70 to 87 °C: melting point
≥ 80%: inhibition of growth at 20 ppm [3] | inhibition of growth at 20 ppm (Fusarium culmorum [1]) | inhibition of growth at 20 ppm [4] | pest or weed control at 200 ppm (Fusarium culmorum [5]) | inhibition of growth at 20 ppm [2] | inhibition of growth at 20 ppm [6]
